Data from PubChem BioAssay AID2060484 (Molecular Pharmacology Branch, DTP, NCI, 2025).

Test system: SUM149PT spheroids with HUVEC/MSC, viability
Experiment: Anticancer human tumor SUM149PT cell line growth inhibition [GQUAD];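 further: spheroids exposed to drugs for seven days before readout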;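 on viability, T/C: percent viability relative to DMSO vehicle control taken as 100%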
Conditions: for IC50: curve of first compound; for viability, T/C: stronger effect = lower value
Procedure, shortened: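 Tumor cells were grown as complex spheroids with HUVEC endothelial cells and mesenchymal stem cells as stroma. G-quadruplex stabilizers were combined with targeted agents over half-log dilutions from near the clinical Cmax, or from 10 microM.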

[1] = second compound 0.0316 µM, first compound 0.0316 µM
[2] = second compound 0.0316 µM, first compound 0.316 µM
[3] = second compound 0.1 µM, first compound 0.0316 µM
[4] = second compound 0.1 µM, first compound 0.316 µM
[5] = second compound 0.316 µM, first compound 0.0316 µM
[6] = second compound 0.316 µM, first compound 0.316 µM
[7] = second compound 1 µM, first compound 0.0316 µM
[8] = second compound 1 µM, first compound 0.316 µM
[9] = second compound 3.16 µM, first compound 0.0316 µM
[10] = second compound 3.16 µM, first compound 0.316 µM
[11] = second compound 10 µM, first compound 0.0316 µM
[12] = second compound 10 µM, first compound 0.316 µM
[13] = second compound 0.0316 µM, first compound 0.1 µM
[14] = second compound 0.0316 µM, first compound 1 µM
[15] = second compound 0.0316 µM, first compound 3.16 µM
[16] = second compound 0.0316 µM, first compound 10 µM
[17] = second compound 0.1 µM, first compound 0.1 µM
[18] = second compound 0.1 µM, first compound 1 µM
[19] = second compound 0.1 µM, first compound 3.16 µM
[20] = second compound 0.1 µM, first compound 10 µM
[21] = second compound 0.316 µM, first compound 0.1 µM
[22] = second compound 0.316 µM, first compound 1 µM
[23] = second compound 0.316 µM, first compound 3.16 µM
[24] = second compound 0.316 µM, first compound 10 µM
[25] = second compound 1 µM, first compound 0.1 µM
[26] = second compound 1 µM, first compound 1 µM
[27] = second compound 1 µM, first compound 3.16 µM
[28] = second compound 1 µM, first compound 10 µM
[29] = second compound 3.16 µM, first compound 0.1 µM
[30] = second compound 3.16 µM, first compound 1 µM
[31] = second compound 3.16 µM, first compound 3.16 µM
[32] = second compound 3.16 µM, first compound 10 µM
[33] = second compound 10 µM, first compound 0.1 µM
[34] = second compound 10 µM, first compound 1 µM
[35] = second compound 10 µM, first compound 3.16 µM
[36] = second compound 10 µM, first compound 10 µM

CCc1c2c(nc3ccc(O)cc13)-c1cc3c(c(=O)n1C2)COC(=O)[C@]3(O)CC + Cc1[nH]c2ccc(F)cc2c1-c1nc2c3cccnc3c3ncccc3c2[nH]1
IC50 (second compound 0.0316 µM): 2.34 nM
IC50 (second compound 0.1 µM): 2.58 nM
IC50 (second compound 0.316 µM): 1.88 nM
IC50 (second compound 1 µM): 2.3 nM
IC50 (second compound 3.16 µM): 1.54 nM
IC50 (second compound 10 µM): < 0.999 nM
viability, T/C (second compound 0.0316 µM, first compound 0.000999 µM): 67.2%
viability, T/C (second compound 0.0316 µM, first compound 0.00316 µM): 34.9%
viability, T/C (second compound 0.0316 µM, first compound 0.00999 µM): 43.4%
viability, T/C [1]: 34.7%
viability, T/C (second compound 0.0316 µM, first compound 0.0999 µM): 32.4%
viability, T/C [2]: 18.2%
viability, T/C (second compound 0.1 µM, first compound 0.000999 µM): 69.1%
viability, T/C (second compound 0.1 µM, first compound 0.00316 µM): 32.6%
viability, T/C (second compound 0.1 µM, first compound 0.00999 µM): 45.4%
viability, T/C [3]: 34.2%
viability, T/C (second compound 0.1 µM, first compound 0.0999 µM): 27.8%
viability, T/C [4]: 16.8%
viability, T/C (second compound 0.316 µM, first compound 0.000999 µM): 61.4%
viability, T/C (second compound 0.316 µM, first compound 0.00316 µM): 33.3%
viability, T/C (second compound 0.316 µM, first compound 0.00999 µM): 37.8%
viability, T/C [5]: 38.2%
viability, T/C (second compound 0.316 µM, first compound 0.0999 µM): 27.2%
viability, T/C [6]: 15.7%
viability, T/C (second compound 1 µM, first compound 0.000999 µM): 65.9%
viability, T/C (second compound 1 µM, first compound 0.00316 µM): 35.5%
viability, T/C (second compound 1 µM, first compound 0.00999 µM): 38.1%
viability, T/C [7]: 40.8%
viability, T/C (second compound 1 µM, first compound 0.0999 µM): 25.5%
viability, T/C [8]: 18.4%
viability, T/C (second compound 3.16 µM, first compound 0.000999 µM): 59.7%
viability, T/C (second compound 3.16 µM, first compound 0.00316 µM): 34.1%
viability, T/C (second compound 3.16 µM, first compound 0.00999 µM): 38.7%
viability, T/C [9]: 39.7%
viability, T/C (second compound 3.16 µM, first compound 0.0999 µM): 27.6%
viability, T/C [10]: 15.7%
viability, T/C (second compound 10 µM, first compound 0.000999 µM): 56.5%
viability, T/C (second compound 10 µM, first compound 0.00316 µM): 31.1%
viability, T/C (second compound 10 µM, first compound 0.00999 µM): 36.3%
viability, T/C [11]: 39%
viability, T/C (second compound 10 µM, first compound 0.0999 µM): 25.3%
viability, T/C [12]: 15.8%

CC(=O)O[C@H]1C(=O)[C@@]2(C)[C@H]([C@H](OC(=O)c3ccccc3)[C@]3(O)C[C@H](OC(=O)[C@H](O)[C@@H](NC(=O)c4ccccc4)c4ccccc4)C(C)=C1C3(C)C)[C@]1(OC(C)=O)CO[C@@H]1C[C@@H]2O + Cc1[nH]c2ccc(F)cc2c1-c1nc2c3cccnc3c3ncccc3c2[nH]1
IC50 (second compound 0.0316 µM): < 31.6 nM
IC50 (second compound 0.1 µM): < 31.6 nM
IC50 (second compound 0.316 µM): < 31.6 nM
IC50 (second compound 1 µM): < 31.6 nM
IC50 (second compound 3.16 µM): < 31.6 nM
IC50 (second compound 10 µM): < 31.6 nM
viability, T/C [1]: 31.7%
viability, T/C [13]: 25.7%
viability, T/C [2]: 21.3%
viability, T/C [14]: 19.2%
viability, T/C [15]: 19%
viability, T/C [16]: 23.1%
viability, T/C [3]: 34.9%
viability, T/C [17]: 24.9%
viability, T/C [4]: 22.7%
viability, T/C [18]: 19.7%
viability, T/C [19]: 19.3%
viability, T/C [20]: 25.8%
viability, T/C [5]: 32.2%
viability, T/C [21]: 25.7%
viability, T/C [6]: 24.2%
viability, T/C [22]: 18.9%
viability, T/C [23]: 20.8%
viability, T/C [24]: 26.5%
viability, T/C [7]: 30.2%
viability, T/C [25]: 27.2%
viability, T/C [8]: 23.1%
viability, T/C [26]: 17.3%
viability, T/C [27]: 21.5%
viability, T/C [28]: 26.6%
viability, T/C [9]: 29.8%
viability, T/C [29]: 28.6%
viability, T/C [10]: 21.5%
viability, T/C [30]: 18%
viability, T/C [31]: 20.5%
viability, T/C [32]: 22.9%
viability, T/C [11]: 28.5%
viability, T/C [33]: 24.9%
viability, T/C [12]: 20.2%
viability, T/C [34]: 20.7%
viability, T/C [35]: 22.3%
viability, T/C [36]: 23.1%

C=CCn1c(=O)c2cnc(Nc3ccc(N4CCN(C)CC4)cc3)nc2n1-c1cccc(C(C)(C)O)n1 + Cc1[nH]c2ccc(F)cc2c1-c1nc2c3cccnc3c3ncccc3c2[nH]1
IC50 (second compound 0.0316 µM): 188 nM
IC50 (second compound 0.1 µM): 192 nM
IC50 (second compound 0.316 µM): 191 nM
IC50 (second compound 1 µM): 181 nM
IC50 (second compound 3.16 µM): 174 nM
IC50 (second compound 10 µM): 189 nM
viability, T/C [1]: 98.9%
viability, T/C [13]: 67%
viability, T/C [2]: 34.8%
viability, T/C [14]: 21%
viability, T/C [15]: 10.4%
viability, T/C [16]: 7.37%
viability, T/C [3]: 91.1%
viability, T/C [17]: 73.5%
viability, T/C [4]: 30.3%
viability, T/C [18]: 21.4%
viability, T/C [19]: 11.7%
viability, T/C [20]: 7.7%
viability, T/C [5]: 94.7%
viability, T/C [21]: 72.5%
viability, T/C [6]: 31.1%
viability, T/C [22]: 21.9%
viability, T/C [23]: 10.5%
viability, T/C [24]: 11.6%
viability, T/C [7]: 85.8%
viability, T/C [25]: 66.1%
viability, T/C [8]: 33.2%
viability, T/C [26]: 22.6%
viability, T/C [27]: 9.91%
viability, T/C [28]: 9.92%
viability, T/C [9]: 84.2%
viability, T/C [29]: 66.6%
viability, T/C [10]: 31%
viability, T/C [30]: 20.3%
viability, T/C [31]: 9.05%
viability, T/C [32]: 8.88%
viability, T/C [11]: 88.7%
viability, T/C [33]: 66.6%
viability, T/C [12]: 35.9%
viability, T/C [34]: 20.1%
viability, T/C [35]: 10.6%
viability, T/C [36]: 9.87%
